# Reference: PubChem BioAssay (NCI)
# Values joined by “and” are separate entries in the source; they are usually repeats but may differ in a detail not shown here. Equal values may be shown once.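 Cultured in 96-well plates, cells were exposed to test compound for 48 hours across five concentrations. The concentration for 50% growth inhibition is given as GI50. TGI: concentration producing complete growth inhibition.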
# Assays:
# Test in all cases: NCI tumour cell line growth inhibition, 48 h
# [1] = tested on: DMS 114 small cell lung
# [2] = tested on: HOP-18 NSCLC
# [3] = tested on: KM20L2 colon
# [4] = tested on: LXFL 529 NSCLC
# [5] = tested on: M19-MEL melanoma
# [6] = tested on: RXF-631 renal
# [7] = tested on: SNB-78 CNS
# [8] = tested on: DMS 273 small cell lung
# [9] = tested on: P388 leukemia
# [10] = tested on: SN12K1 renal
# [11] = tested on: P388/ADR leukemia
Compound,TGI [1] [µM],TGI [2],TGI [3] [µM],TGI [4] [µM],TGI [5] [µM],TGI [6] [µM],TGI [7] [µM],TGI [8],GI50 [8] [µM],GI50 [2] [µM],GI50 [5] [µM],TGI [9] [µM],GI50 [10] [µM],TGI [10],GI50 [7] [µM],TGI [11] [µM]
CCOC(=O)C(=CNC(Cc1c[nH]c2ccccc12)C(=O)OC)C(=O)OCC (stereo not drawn),> 100,> 100 µM,> 100,> 100,> 100,> 100,> 100,,,,,,,,,
CCN(CC)/[N+]([O-])=N/OC,,,> 100,> 100,> 100,,> 100,> 100 µM,,,,,,,,
C=C1CCCC(C)(C)[C@@H]1CC/C(C)=C/Cn1c2cccc(=O)c-2nc2ccccc21,2.3,> 100 µM and 18.2 µM,,,,,> 100,24.1 µM and 3.29 µM,3.02,37.2,3.07,> 100,2.89,15.5 µM and 13.2 µM,4.35,
NC(N)=NS(=O)(=O)c1ccc(Nc2c3ccccc3nc3c(C(=O)N4CCN(CCO)CC4)ccc(Cl)c23)cc1,> 100,,> 100,,> 100,,> 100,,,,,,,,,
O=CC(O)C(O)C(O)COc1cc(CO)cc2c1C(=O)c1ccccc1C2=O (stereo not drawn),> 100,> 100 µM,> 100,> 100,> 100,> 100,> 100,> 100 µM,,,,,,,,
O=c1oc2c(ccc3occc32)c(N2CCCCC2)c1-c1ccccc1,> 100,> 100 µM,> 100,,> 100,,> 100,> 100 µM,,,,> 100,,> 100 µM,,> 100
COc1cccc(/C=N/[N-]C(N)=O)c1[O-].[Cu+2].[OH3+].c1cnc2c(c1)ccc1cccnc12,,,> 100,,,,,,,,,,,,,
O=S1c2ccccc2N=C(c2ccc3ccccc3c2)CC1c1ccccc1 (stereo not drawn),,,35.7,29.8,34.9,,> 100,> 100 µM,,,,,,,,
CCOC(=O)C(C)OC(=O)c1ccc(C)cc1 (stereo not drawn),> 100,> 100 µM,> 100,> 100,> 100,> 100,> 100,> 100 µM,,,,,,,,
